SMILES strings stand for the structures.

One experiment deals with T1, human Cot/Tpl2 kinase (Homo sapiens, UniProt P41279).
T1 construct: human Cot/Tpl2 kinase construct encoding residues 30-398; 6His (N); made in house; host or cells: Sf9 insect cells, baculovirus system (BD Biosciences)
T1 sequence (P41279 30-398): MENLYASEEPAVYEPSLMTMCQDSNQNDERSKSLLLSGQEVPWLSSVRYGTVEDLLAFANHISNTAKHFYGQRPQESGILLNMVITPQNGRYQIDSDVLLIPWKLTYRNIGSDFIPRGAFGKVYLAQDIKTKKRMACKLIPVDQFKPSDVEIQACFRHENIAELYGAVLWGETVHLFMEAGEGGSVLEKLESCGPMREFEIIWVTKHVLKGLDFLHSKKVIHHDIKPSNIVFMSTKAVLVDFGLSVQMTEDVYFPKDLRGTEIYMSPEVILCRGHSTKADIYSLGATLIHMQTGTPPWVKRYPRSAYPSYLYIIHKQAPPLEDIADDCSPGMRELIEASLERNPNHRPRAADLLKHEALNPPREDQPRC
Put plainly: Tpl2/Cot kinase assay: GST-MEK1 phosphorylation detected by ELISA (DELFIA Eu). Type of experiment: biochemical. The note with it: 0.4 nM Tpl2, 35 nM GST-MEK1, 50 uM ATP, 1 h at 30° C. The method in brief:
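His-tagged human Tpl2 from Sf9 cells, Ni-affinity and size-exclusion purified (monomer). 0.4 nM Tpl2 with 35 nM GST-MEK1, 50 uM ATP, MOPS pH 7.2, 1% DMSO, 1 h at 30° C; EDTA stop. MEK1 Ser217/221 phosphorylation detected by anti-phospho-MEK1 and Eu-labelled secondary ELISA; IC50 fitted.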
For the compound `N#Cc1cnc2c(Cl)cc(NCc3cn(CCN4CCOC4=O)nn3)cc2c1Nc1ccc(F)c(Cl)c1` [Example 222, 8-chloro-4-(3-chloro-4-fluorophenylamino)-6-((1-(2-(2-oxooxazolidin-3-yl)ethyl)-1H-1,2,3-triazol-4-yl)methylamino)quinoline-3-carbonitrile], the IC50 came out at 10 nM. Consider `N#Cc1cnc2ccc(NCc3ccccc3)cc2c1Nc1ccc(F)c(Cl)c1` [Example 36, 6-Benzylamino-4-(3-chloro-4-fluoro-phenylamino)-quinoline-3-carbonitrile], for which the IC50 is 630 nM.

Compound `N#Cc1cnc2ccc(NCc3cccnc3)cc2c1Nc1ccc(C(N)=O)cc1` [Example 99, 4-(3-cyano-6-(pyridin-3-ylmethylamino)quinolin-4-ylamino)benzamide] displayed a 50% inhibitory concentration (IC50) of 24100 nM. Still for that read-out and setting: next, `N#Cc1cnc2c(Br)cc(NCc3[nH]cnc3-c3ccccc3)cc2c1Nc1ccc(F)c(Cl)c1` [Example 111, 8-bromo-4-(3-chloro-4-fluorophenylamino)-6-((4-phenyl-1H-imidazol-5-yl)methylamino)quinoline-3-carbonitrile]: 33 nM; `N#Cc1ccccc1CNc1cc(C(F)(F)F)c2ncc(C#N)c(Nc3ccc(F)c(Cl)c3)c2c1` [Example 233, 4-[(3-chloro-4-fluorophenyl)amino]-6-[(2-cyanobenzyl)amino]-8-(trifluoromethyl)quinoline-3-carbonitrile]: above 40000 nM; `N#Cc1cnc2ccc(NCc3ccc(S(=O)(=O)N4CCOCC4)cc3)cc2c1Nc1ccc(F)c(Cl)c1` [Example 120, 6-(4-(morpholinosulfonyl)benzylamino)-4-(3-chloro-4-fluorophenylamino)quinoline-3-carbonitrile]: 24 nM. Still for that read-out and setting: next, `CC(C)c1nc[nH]c1CNc1cc(Cl)c2ncc(C#N)c(Nc3ccc(F)c(Cl)c3)c2c1` [Example 214, 8-chloro-4-[(3-chloro-4-fluorophenyl)amino]-6-{[(4-isopropyl-1H-imidazol-5-yl)methyl]amino}quinoline-3-carbonitrile]: 16 nM; `Cc1cc2ncc(C#N)c(Nc3ccc(F)c(Cl)c3)c2cc1NCc1cnc[nH]1` [Example 226, 4-[(3-chloro-4-fluorophenyl)amino]-6-[(1H-imidazol-5-ylmethyl)amino]-7-methylquinoline-3-carbonitrile]: above 40000 nM. Same read-out and setting: to `N#Cc1cnc2c(Br)cc(NCc3cn(CC(=O)N4CCOCC4)nn3)cc2c1Nc1ccc(F)c(Cl)c1` [Example 298, 8-Bromo-4-(3-chloro-4-fluoro-phenylamino)-6-{[1-(2-morpholin-4-yl-2-oxo-ethyl)-1H-[1,2,3]triazol-4-ylmethyl]-amino}-quinoline-3-carbonitrile] belongs 38 nM.

Regarding `Cc1cc2ncc(C#N)c(Nc3ccc(F)c(Cl)c3)c2cc1NCCN1CCOCC1` [Example 227, 4-[(3-chloro-4-fluorophenyl)amino]-7-methyl-6-[(2-morpholin-4-ylethyl)amino]quinoline-3-carbonitrile], the IC50 was above 40000 nM. Same read-out and setting: next, `CS(=O)(=O)c1cccc(CNc2cc(Cl)c3ncc(C#N)c(Nc4ccc(F)c(Cl)c4)c3c2)c1` [Example 185, 6-(3-(methylsulfonyl)benzylamino)-8-chloro-4-(3-chloro-4-fluorophenylamino)quinoline-3-carbonitrile]: 47 nM; `CC(C)(C)OC(=O)N1CCC(NC(=O)Cn2ccnc2CNc2ccc3ncc(C#N)c(Nc4ccc(F)c(Cl)c4)c3c2)CC1` [Example 142, tert-butyl 4-(2-(2-((4-(3-chloro-4-fluorophenylamino)-3-cyanoquinolin-6-ylamino)methyl)-1H-imidazol-1-yl)acetamido)piperidine-1-carboxylate]: 1800 nM. The same measure, in the same setting: next, `CCN1CCCC(n2cc(CNc3cc(Cl)c4ncc(C#N)c(Nc5ccc(F)c(Cl)c5)c4c3)nn2)CC1` (stereo not drawn) [Example 330, 8-chloro-4-[(3-chloro-4-fluorophenyl)amino]-6-({[1-(1-ethylazepan-4-yl)-1H-1,2,3-triazol-4-yl]methyl}amino)quinoline-3-carbonitrile]: 8.5 nM; `CN(C)C(=O)CNc1ccc2ncc(C#N)c(Nc3ccc(F)c(Cl)c3)c2c1` [Example 103, 2-(4-(3-chloro-4-fluorophenylamino)-3-cyanoquinolin-6-ylamino)-N,N-dimethylacetamide]: 510 nM. The same measure, in the same setting: to `CCOCCOc1ccc2c(c1)CN(c1ccc3ncc(C#N)c(Nc4ccc(F)c(Cl)c4)c3c1)C2=N` [Example 60] belongs above 40000 nM.

With `CC(C)(C)OC(=O)N1CCC[C@H]1CNc1ccc2ncc(C#N)c(Nc3ccc(F)c(Cl)c3)c2c1` [Example 40, 2-{[4-(3-Chloro-4-fluoro-phenylamino)-3-cyano-quinolin-6-ylamino]-methyl}-L-pyrrolidine-1-carboxylic acid tert-butyl ester], the concentration for half-maximal inhibition (IC50) came out at 2400 nM.

Staying with this experiment, now noted: Table 2; Tpl2/Cot kinase, GST-MEK1 substrate, 50 uM ATP.
On to `N#Cc1cnc2ccc(Br)cc2c1Nc1ccc(Oc2ccccc2)cc1` [Example 336], for which half-maximal inhibition (IC50) was put at 1000 nM. The same measure, in the same setting: to `N#Cc1cnc2ccc(N)cc2c1NC1CCN(Cc2ccccc2)CC1` [Example 363] belongs above 40000 nM; to `COCCOCCn1cc(CNc2cc(Cl)c3ncc(C#N)c(Nc4ccc(F)c(Cl)c4)c3c2)nn1` [Example 564], 21 nM; to `COC(=O)c1cnc(CNc2cc(Cl)c3ncc(C#N)c(Nc4ccc(F)c(Cl)c4)c3c2)n1C` [Example 442], 3400 nM. Same read-out and setting: next, `CC(C)(C)OC(=O)N1CCCC(Cn2cc(CNc3cc(Br)c4ncc(C#N)c(Nc5ccc(F)c(Cl)c5)c4c3)nn2)C1` (stereo not drawn) [Example 540]: 120 nM. Compound `N#Cc1cnc2c(Cl)cc(NC3CCCC3N=[N+]=[N-])cc2c1Nc1ccc(F)c(Cl)c1` (stereo not drawn) [Example 629] registered an IC50 of 420 nM. Still for that read-out and setting: to `N#Cc1cnc2c(Br)cc(NCc3cn(CCc4ccccn4)nn3)cc2c1Nc1ccc(F)c(Cl)c1` [Example 558] belongs 3.4 nM; to `Cc1nc(CNc2cc(Cl)c3ncc(C#N)c(Nc4ccc(F)c(Cl)c4)c3c2)c(C)[nH]1` [Example 431], 220 nM. The same measure, in the same setting: to `N#Cc1cnc2c(Cl)cc(NCc3cn(-c4cc[n+]([O-])cc4)nn3)cc2c1Nc1ccc(F)c(Cl)c1` [Example 576] belongs 16 nM; to `CS(=O)(=O)c1cccc(CNc2ccc3ncc(C#N)c(NC4CCCC4)c3c2)c1` [Example 414], 2900 nM.

The experiment is the same for the next values; noted with them: Tpl2/Cot kinase, GST-MEK1 substrate, 50 uM ATP.
In the case of `N#Cc1cnc2c(Cl)cc(C(=O)O)cc2c1Nc1ccc(F)c(Cl)c1` [Example 770], the midpoint of inhibition, the IC50, lay at 2400 nM.

In the case of `CN1CCN(CCCn2cc(CNc3cc(Cl)c4ncc(C#N)c(Nc5ccc(F)c(Cl)c5)c4c3)nn2)CC1` [Example 796], the IC50 was 39 nM. On the same count and under the same terms, to `N#Cc1cnc2c(Cl)cc(NCc3cncn3CCN3CCOCC3)cc2c1Nc1ccc(F)c(Cl)c1` [Example 671] belongs 62 nM; to `N#Cc1cnc2c(Br)cc(NCc3cn(COCc4ccccc4)nn3)cc2c1Nc1ccc(F)c(Cl)c1` [Example 805], above 3000 nM; to `N#Cc1cnc2c(Br)cc(NCc3cn(Cc4ccccn4)nn3)cc2c1Nc1ccc(F)c(Cl)c1` [Example 753], 33 nM. On the same count and under the same terms, next, `CC(=O)N1CCC(CN(C(C)=O)c2cc(Cl)c3ncc(C#N)c(Nc4ccc(F)c(Cl)c4)c3c2)CC1` [Example 865]: 380 nM.

With `N#Cc1cnc2c(Br)cc(NCc3cn(CCN4CCOCC4)cn3)cc2c1Nc1ccc(F)c(Cl)c1` [Example 669], the IC50 was 41 nM. Still for that read-out and setting: to `CN1CCC(n2cc(CN(C)c3cc(Br)c4ncc(C#N)c(Nc5ccc(F)c(Cl)c5)c4c3)nn2)CC1` [Example 681] belongs 22 nM; to `CN1CCN(C(=O)Cn2cc(CNc3cc(Cl)c4ncc(C#N)c(Nc5ccc(F)c(Cl)c5)c4c3)nn2)CC1` [Example 822], 13 nM. Compound `Cc1c(Cn2cc(CNc3cc(Cl)c4ncc(C#N)c(Nc5ccc(F)c(Cl)c5)c4c3)nn2)ccc[n+]1[O-]` [Example 842] yielded an IC50 of 0.9 nM. On the same count and under the same terms, to `CN(C)C(=O)OCCCn1cc(CNc2cc(Cl)c3ncc(C#N)c(Nc4ccc(F)c(Cl)c4)c3c2)nn1` [Example 750] belongs 16 nM; to `CC(C)CN(CCCn1cc(CNc2cc(Cl)c3ncc(C#N)c(Nc4ccc(F)c(Cl)c4)c3c2)nn1)CC(C)C` [Example 913], 45 nM; to `CS(=O)(=O)CCn1cc(CNc2cc(Br)c3ncc(C#N)c(Nc4ccc(F)c(Cl)c4)c3c2)nn1` [Example 694], 91 nM. Turning to `N#Cc1cnc2c(Br)cc(NCc3cn(CCS(=O)(=O)C4CCCC4)nn3)cc2c1Nc1ccc(F)c(Cl)c1` [Example 699], the IC50 came to 53 nM. Still for that read-out and setting: next, `CCNC(=O)N1CCC[C@@H]1Cn1cc(CNc2cc(Cl)c3ncc(C#N)c(Nc4ccc(F)c(Cl)c4)c3c2)nn1` [Example 899]: 0.6 nM. The same measure, in the same setting: next, `N#Cc1cnc2c(Cl)cc(NCc3cn(CCCO)nn3)cc2c1Nc1ccc(F)c(Cl)c1` [Example 751]: 3.6 nM; `CCN(Cc1cn(CC(=O)N(C)C)nn1)c1cc(Br)c2ncc(C#N)c(Nc3ccc(F)c(Cl)c3)c2c1` [Example 835]: 9.1 nM; `N#Cc1cnc2c(Br)cc(NCc3cc([C@@H]4CCCN4)n[nH]3)cc2c1Nc1ccc(F)c(Cl)c1` [Example 724]: 330 nM.

Staying with this experiment, now noted: Tpl2/Cot kinase, GST-MEK1 substrate, 50 uM ATP, 1 h at 30° C.; Table 2.
Regarding `N#Cc1cnc2c(Cl)cc(NCc3cncc(C4(O)CCOCC4)c3)cc2c1Nc1ccc(F)c(Cl)c1` [Example 1048], the IC50 stood at 450 nM. Still for that read-out and setting: next, `N#Cc1cnc2c(Cl)cc(NCc3cn(C4CCNCC4)nn3)cc2c1NC1CCC1` [Example 986]: 350 nM; `N#Cc1cnc2c(Cl)cc(NCc3cn(CCN4CCN(CC5CC5)CC4)nn3)cc2c1Nc1ccc(F)c(Cl)c1` [Example 966]: 150 nM; `Cc1cc(CNc2cc(Cl)c3ncc(C#N)c(Nc4ccc(F)c(Cl)c4)c3c2)no1` [Example 996]: above 3000 nM.

A word on the IC50: it is the midpoint of a concentration-inhibition curve. Higher therefore signals weaker potency.

The values are drawn from patent publication US20060264460A1 (Wyeth, priority 2005, published 2006).
